Source: PMC10698726 (Molecular Pharmaceutics, 2023)
“And” between values parts separate entries of the source, which are not always exact repeats. Equal entries are not always repeated. Where two headings read alike, the source gives them in different places.

Experiments:
OCT2 = target: T1, OCT2 (Homo sapiens, UniProt O15244); test: Inhibition of model substrate uptake in OCT2-overexpressing HEK293 cells; conditions: for IC50: IC50, OCT2, Table S5, 2 μM ASP+ as model substrate, 5 min; for selectivity ratio at 5 min: OCT2-overexpressing HEK293 cells
T1 sequence (O15244 1-555): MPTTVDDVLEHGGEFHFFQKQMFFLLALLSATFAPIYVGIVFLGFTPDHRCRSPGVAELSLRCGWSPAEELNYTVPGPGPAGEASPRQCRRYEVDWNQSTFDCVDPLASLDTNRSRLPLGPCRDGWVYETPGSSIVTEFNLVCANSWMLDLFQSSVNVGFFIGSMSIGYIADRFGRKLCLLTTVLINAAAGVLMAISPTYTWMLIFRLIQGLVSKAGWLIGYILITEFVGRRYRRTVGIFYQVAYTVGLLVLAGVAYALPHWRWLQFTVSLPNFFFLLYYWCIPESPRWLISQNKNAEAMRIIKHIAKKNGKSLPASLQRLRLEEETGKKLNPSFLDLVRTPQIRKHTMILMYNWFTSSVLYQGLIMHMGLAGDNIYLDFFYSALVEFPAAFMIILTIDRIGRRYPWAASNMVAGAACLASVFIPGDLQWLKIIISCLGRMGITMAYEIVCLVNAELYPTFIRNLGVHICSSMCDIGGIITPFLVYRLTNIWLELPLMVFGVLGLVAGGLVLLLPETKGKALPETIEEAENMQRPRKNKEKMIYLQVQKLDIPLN
Experimental: (§1) All experiments were carried out in transporter-overexpressing HEK293 cells. OCT1-, OCT2-, NET-, DAT-, and SERT-overexpressing cells as well as the empty-vector transfected control cell line were generated as described earlier,[26]−[28] whereas the OCT3-overexpressing HEK293 cells were generous gift of from Drs. Koepsell and Gorbulev (University of Würzburg, Germany). All cells were cultivated in Dulbecco’s modified Eagle’s medium (DMEM) supplemented with 10% (v/v) FCS, penicillin (100 U/mL), and streptomycin (100 μg/mL) and kept in culture for no longer than 30 passages.
(§2) As for the transport experiments, 300,000 HEK293 cells were plated in poly-D-lysine-coated 24-well plates 2 days ahead of the experiment. On every plate, two wells of empty vector (EV)-transfected cells were used as a control to account for the passive influx of the model substrate, and two wells of transporter-overexpressing cells were used to determine the noninhibited uptake of the model substrate. Cells were initially washed once with 37 °C HBSS+ and then incubated with 2 μM model substrate (0.2 μM for MPP^+ uptake by MATs) with and without 20 μM inhibitor for 5 min. For concentration-dependent inhibition experiments, the cells were incubated with increasing inhibitor concentrations. The incubation was terminated by aspiration of the buffer before cells were washed twice with ice-cold HBSS+ and lysed in 80% acetonitrile. Cell lysates were transferred into a black 96-well plate for the fluorescence measurement of ASP^+ or used for sample preparation for LC–MS/MS analysis. […] Fluorescence quantification was performed in technical duplicates.
(§3) Transporter-mediated net uptake was calculated as the difference between uptake in transporter-overexpressing cells and that in the empty-vector-transfected control. […] Vmax is the maximum transport velocity, while Km is defined as the substance concentration that is required to reach half of vmax. The ratio of vmax over Km is termed intrinsic clearance Clint. For inhibition experiments, the transport activity was calculated by using the following equation [drawing 1]
(§4) SubstrateEV refers to the passive uptake of model substrates into the control cells and substratenoninhibited is the uptake in transporter-overexpressing cells without the presence of any inhibitor. The percent inhibition values are then calculated as described in the following [drawing 2]
(§5) For concentration inhibition experiments, the transporter activity was plotted against the log10 of inhibitor concentrations, and the data were fitted by the following equation to determine IC50 values [drawing 3]
(§6) Y refers to the transporter activity, whereas Ymax is the maximum and Ymin is the minimal transporter activity. X is the log10 of inhibitor concentrations, IC50 is the half-maximal inhibitory concentration, and hill slope is the slope factor.

OCT3 = target: T2, OCT3 (Homo sapiens, UniProt O75751); test: Inhibition of model substrate uptake in OCT3-overexpressing HEK293 cells; format: cell-based; conditions: for IC50: read-out: IC50; for x-fold Stereoselectivity: ratio of the IC50 values of the two enantiomers of the drug
T2 construct: expressed in transfected cells; host or cells: HEK293
T2 sequence (O75751 1-556): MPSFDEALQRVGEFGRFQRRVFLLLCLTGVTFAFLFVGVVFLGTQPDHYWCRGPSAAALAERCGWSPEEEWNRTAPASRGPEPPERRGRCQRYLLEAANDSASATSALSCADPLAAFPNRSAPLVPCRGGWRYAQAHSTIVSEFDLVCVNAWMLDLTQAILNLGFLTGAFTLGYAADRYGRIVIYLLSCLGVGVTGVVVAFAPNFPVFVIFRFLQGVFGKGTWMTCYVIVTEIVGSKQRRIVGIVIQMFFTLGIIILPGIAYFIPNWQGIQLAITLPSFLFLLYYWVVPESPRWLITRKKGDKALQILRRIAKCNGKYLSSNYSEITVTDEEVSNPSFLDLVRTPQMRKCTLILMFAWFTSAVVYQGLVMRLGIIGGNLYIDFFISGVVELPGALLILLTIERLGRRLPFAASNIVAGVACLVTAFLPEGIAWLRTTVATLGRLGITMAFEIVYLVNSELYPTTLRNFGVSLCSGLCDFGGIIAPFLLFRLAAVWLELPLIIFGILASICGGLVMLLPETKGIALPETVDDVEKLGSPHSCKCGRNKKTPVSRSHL
Experimental: as §1, §2, §3, §4, §5, §6

OCT1 = target: T3, OCT1 (Homo sapiens, UniProt O15245); test: Inhibition of model substrate uptake in OCT1-overexpressing HEK293 cells; format: cell-based; parameters: expressed in transfected cells; host or cells: HEK293; conditions: for selectivity ratio at 5 min: OCT1-overexpressing HEK293 cells, pH 7.4, OCT1, ratio of the IC50 values of the two enantiomers of the drug, read-out: x-fold Stereoselectivity; for ASP+ inhibition [%]: OCT1, 20 μM inhibitor, 2 μM ASP+, 5 min, mean of three experiments
T3 sequence (O15245 1-554): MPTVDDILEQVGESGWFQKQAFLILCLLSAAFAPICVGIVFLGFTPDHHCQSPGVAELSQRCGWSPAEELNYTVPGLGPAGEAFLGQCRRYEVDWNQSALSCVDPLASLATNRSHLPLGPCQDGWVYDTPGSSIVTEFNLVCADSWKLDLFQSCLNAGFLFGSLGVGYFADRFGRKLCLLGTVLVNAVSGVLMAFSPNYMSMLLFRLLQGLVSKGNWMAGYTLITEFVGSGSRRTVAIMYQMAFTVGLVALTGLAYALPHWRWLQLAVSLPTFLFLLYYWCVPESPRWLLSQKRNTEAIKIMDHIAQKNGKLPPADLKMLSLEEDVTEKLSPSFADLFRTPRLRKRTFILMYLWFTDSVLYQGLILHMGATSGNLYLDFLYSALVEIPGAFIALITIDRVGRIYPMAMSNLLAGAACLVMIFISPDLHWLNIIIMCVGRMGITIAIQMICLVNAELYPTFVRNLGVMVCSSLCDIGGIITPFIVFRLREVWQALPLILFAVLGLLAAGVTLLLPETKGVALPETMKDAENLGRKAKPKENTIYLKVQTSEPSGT
Experimental: Koepsell and Gorbulev (University of Würzburg, Germany).
Fluorescence quantification was performed in technical duplicates.

[1] = OCT2, ratio of the IC50 values of the two enantiomers of the drug
[2] = OCT3, Table S5, 2 μM ASP+ or ethambutol as model substrate, 5 min
[3] = OCT3, 20 μM inhibitor, 2 μM ASP+, 5 min
[4] = OCT3, model substrate 2 μM (S)-zolmitriptan, 5 min
[5] = OCT3, model substrate 2 μM (S,S)-ethambutol, 5 min
[6] = OCT3, model substrate 2 μM N-ethyllidocaine, 5 min
[7] = HEK293, 5 min, read-out: (S)-Zolmitriptan inhibition [%], OCT3, 20 μM inhibitor, 2 μM (S)-zolmitriptan, 5 min
[8] = HEK293, OCT3, 20 μM inhibitor, 2 μM ASP+, 5 min, read-out: ASP+ inhibition [%]
[9] = OCT3, 20 μM inhibitor, 2 μM (S,S)-ethambutol, 5 min
[10] = HEK293, 5 min, read-out: (S)-Zolmitriptan inhibition [%]
[11] = HEK293, 5 min, read-out: (S,S)-Ethambutol inhibition [%]
[12] = HEK293, 5 min, read-out: (S,S)-Ethambutol inhibition [%], OCT3, 20 μM inhibitor, 2 μM (S,S)-ethambutol, 5 min
[13] = OCT3, 20 μM inhibitor, 2 μM (S)-zolmitriptan, 5 min

CCN1CCCC1CNC(=O)c1cc(S(=O)(=O)CC)c(N)cc1OC (stereo not shown) [Amisulpride]
difference between enantiomers in the inhibition of OCT2 (in words) (OCT2; ASP+ screening, 20 μM inhibitor): noticeable differences | x-fold Stereoselectivity (OCT2; [1]): 3.2 fold

Cc1ccc(O)c([C@@H](CCN(C(C)C)C(C)C)c2ccccc2)c1 [(S)-Tolterodine]
(S)-Zolmitriptan inhibition [%] (OCT3): 82.9 | (S,S)-Ethambutol inhibition [%] (OCT3): 89.8 | IC50 (OCT3; [2]): 25300 nM | ASP+ inhibition [%] (OCT3; [3]): 53.5% and 54% | IC50 (OCT3; [4]): 7000 nM | IC50 (OCT3; [5]): 6370 nM | IC50 (OCT3; [6]): 3100 nM | IC50 (OCT3; OCT3, model substrate 2 μM famotidine, 5 min): 2310 nM | IC50 (OCT2): 0.13 µM

CCCNC[C@@H](O)COc1ccccc1C(=O)CCc1ccccc1 [(R)-Propafenone]
inhibition at 20 µM (OCT3; [7]): 53.6% | inhibition at 20 µM (OCT3; [8]): 17.3%

CN(C)CCOC(C)(c1ccccc1)c1ccccn1 (stereo not shown) [Doxylamine]
selectivity ratio at 5 min (OCT1; human): 1.4

CNCC[C@@H](Oc1ccccc1C)c1ccccc1 [(R)-Tomoxetine]
inhibition at 20 µM (OCT3; [7]): 33.2% | (S,S)-Ethambutol inhibition [%] (OCT3; [9]): 39.0% | ASP+ inhibition [%] (OCT3; [3]): 1.1% | IC50 (OCT2): 6.3 µM

C1CCN2C[C@@H]3C[C@@H](CN4CCCC[C@@H]34)[C@H]2C1 [(-)-Sparteine]
(S)-Zolmitriptan inhibition [%] (OCT3): 11.0 | (S,S)-Ethambutol inhibition [%] (OCT3): 20.7 | ASP+ inhibition [%] (OCT3; [3]): 0.4%

COc1ccc(CCN(C)CCC[C@](C#N)(c2ccc(OC)c(OC)c2)C(C)C)cc1OC [(R)-Verapamil]
inhibition at 20 µM (OCT3; [10]): 42.1% | inhibition at 20 µM (OCT3; [11]): 48.9% | inhibition at 20 µM (OCT3; [8]): 8.2%

C#CCN(C)C(C)Cc1ccccc1 (stereo not shown) [Deprenyl]
x-fold Stereoselectivity (OCT2; human, pH 7.4): 1.4 fold

CC(C)NC[C@H](O)COc1ccc(CC(N)=O)cc1 [(S)-Atenolol]
inhibition at 20 µM (OCT3; [7]): -3.8% | inhibition at 20 µM (OCT3; [12]): 2.9% | inhibition at 20 µM (OCT3; [8]): 0.9%

Cc1ccc(O)c([C@H](CCN(C(C)C)C(C)C)c2ccccc2)c1 [(R)-Tolterodine]
inhibition at 20 µM (OCT3; [10]): 97.6% | IC50 (OCT3; [2]): 2300 nM | ASP+ inhibition [%] (OCT3; [3]): 94% | IC50 (OCT3; [4]): 570 nM | IC50 (OCT3; [5]): 390 nM | IC50 (OCT3; [6]): 230 nM | IC50 (OCT3): 170 nM | IC50 (OCT2): 0.2 µM

CNCC[C@H](Oc1ccccc1C)c1ccccc1 [(S)-Tomoxetine]
(S)-Zolmitriptan inhibition [%] (OCT3; [13]): 21.1% | (S,S)-Ethambutol inhibition [%] (OCT3; [9]): -5.7% | ASP+ inhibition [%] (OCT3; [3]): -8.3% | IC50 (OCT2): 17.1 µM

CCCN[C@H]1CCc2nc(N)sc2C1 [Pramipexole]
selectivity ratio at 5 min (OCT1; human): 1.6 | selectivity ratio at 5 min (OCT2; human, pH 7.4): 4

CC(C)NC[C@@H](O)COc1ccc(CC(N)=O)cc1 [(R)-Atenolol]
inhibition at 20 µM (OCT3; [7]): 5.5% | inhibition at 20 µM (OCT3; [12]): 0.9% | inhibition at 20 µM (OCT3; [8]): 3.9%

CN(C)CCc1c[nH]c2ccc(C[C@H]3COC(=O)N3)cc12 [Zolmitriptan]
x-fold Stereoselectivity (OCT3; OCT3): 25 fold | stereoselective inhibition of OCT3 (in words) (OCT3; ethambutol and zolmitriptan as substrates, 20 μM inhibitor): stereoselective inhibition

CCN[C@H](C)Cc1cccc(C(F)(F)F)c1 [(R)-Fenfluramine]
ASP+ inhibition [%] (OCT1): 38.4% | inhibition at 20 µM (OCT3; [10]): 55.9% | inhibition at 20 µM (OCT3; [11]): 40.7% | inhibition at 20 µM (OCT3; [8]): 7.6%

COc1ccc(CCN(C)CCC[C@@](C#N)(c2ccc(OC)c(OC)c2)C(C)C)cc1OC [(S)-Verapamil]
inhibition at 20 µM (OCT3; [10]): 57.6% | inhibition at 20 µM (OCT3; [11]): 70.7% | inhibition at 20 µM (OCT3; [8]): 20.8%

OCC(O)CN1CCN(c2ccccc2)CC1 (stereo not shown) [Dropropizine]
x-fold Stereoselectivity (OCT2; [1]): 1.4 fold

CCCNC[C@H](O)COc1ccccc1C(=O)CCc1ccccc1 [(S)-Propafenone]
(S)-Zolmitriptan inhibition [%] (OCT3; [13]): 62.0% | (S,S)-Ethambutol inhibition [%] (OCT3; [9]): 76.4% | ASP+ inhibition [%] (OCT3; [3]): 23.8%

CCN[C@@H](C)Cc1cccc(C(F)(F)F)c1 [(S)-Fenfluramine]
ASP+ inhibition [%] (OCT1): 41.9% | Sumatriptan inhibition [%] (OCT1; human, pH 7.4): 87.1% | (S)-Zolmitriptan inhibition [%] (OCT3): 51.9% | (S,S)-Ethambutol inhibition [%] (OCT3): 40.7% | ASP+ inhibition [%] (OCT3; [3]): 12.7%

CC(C)(C)NC[C@H](O)COc1nsnc1N1CCOCC1 [Timolol]
selectivity ratio at 5 min (OCT2; human, pH 7.4): 2

O=C1c2cccc3c2[C@H](CCC3)CN1[C@@H]1CN2CCC1CC2 [Palonosetron]
x-fold Stereoselectivity (OCT3; OCT3): 2.5 fold | stereoselectivity in the inhibition of OCT2 (in words) (OCT2; ASP+ uptake, reduced inhibitor concentrations (Figure S4)): relevant stereoselectivity | selectivity ratio at 5 min (OCT2; human, pH 7.4): 3.2
